Reference: patent publication US20210382054A1, “METHODS FOR SCREENING UBIQUITIN LIGASE AGONISTS” (University of Washington, priority 2018, published 2021)

These substances were tested against T1, KEAP1-ssDNA12 and KRAS^G12D-ssDNA18 (Homo sapiens, UniProt P01116+Q14145, G12D) (assay: APTLAB (adjustable platform for tracking low affinity binding) detected by Octet BLI). Details: ssDNA bridge oligonucleotide alone, no compound (FIG. 8B).
T1 construct: full length human KRAS4B (UniProtKB-P01116-2) with a site mutation G12D; His-tag (N, cleaved yes); His-tag (N); made in house; host or cells: E. coli BL21 (DE3)
Text: While TR-FRET can be used as an informative second screen for hit validation, its principle is similar to AlphaScreen and relies on beads-based and proximity-induced signals. The hit compounds were further validated with additional methods that are distinct from AlphaScreen and TR-FRET methods. […] In other words, even though these compounds might be able to promote KRAS-KEAP1 interaction, the resulting ternary complex might be too unstable to be detected by the conventional methods. To overcome this problem, a new assay was designed (designated herein as APTLAB, adjustable platform for tracking low affinity binding) (FIG. 5), in which weak interactions between complementary DNA strands with variable length was used to enhance the compound-induced low affinity binding between KRAS and KEAP1 and render it detectable by conventional methods.
To couple adjustable DNA oligonucleotide interactions with low affinity protein-protein interaction, a protein fold, HUH, which is able to react with a specific single-stranded DNA (ssDNA) oligonucleotide and form a covalently linked protein-DNA conjugate (Lovendahl, K. N., Hayward, A. N. & Gordon, W. R. Sequence-Directed Covalent Protein-DNA Linkages in a Single Step Using HUH-Tags. J Am Chem Soc 139, 7030-7035, doi:10.1021/jacs.7b02572 (2017)), was utilized. HUH protein was fused to the C-terminus of KEAP1 and KRAS^G12D individually so that the two chimeric proteins can each form a covalent link with an ssDNA containing the HUH-reactive sequence (FIGS. 5 and 6). The purified HUH fusion proteins were adjusted to 100 μM in a buffer containing 20 mM HEPES (pH 7.5), 50 mM NaCl, 0.5 mM TCEP, 1 mM MgCl2 and 1 mM MnCl2. The ssDNA oligonulceotides were added to a final concentration of 120 μM. […]
ssDNA bridge oligonucleotides were synthesized with different lengths with 33, 28 and 23 nucleotides (nt) (FIG. 8A) and tested their ability to promote complex formation between the two ssDNA-protein conjugates as monitored by BLI. […]
In the case of “ssDNA-bridge23nt: ssDNA bridge oligonucleotide, 23 nucleotides, 5′-GTTGTTGTTTTGTATGGTGTGTG-3′ (chemistry not fully specified)”, the “complex formation between KEAP1-ssDNA12 and KRAS^G12D-ssDNA18, BLI binding signal” value is reported as “too weak to detect”. For “ssDNA-bridge28nt: ssDNA bridge oligonucleotide, 28 nucleotides, 5′-GTTGTTGTTGTTTTGTATGGTGTGTGGT-3′; inflection point bridge (chemistry not fully specified)”, the “complex formation between KEAP1-ssDNA12 and KRAS^G12D-ssDNA18, BLI binding signal” value was “significantly lower”. With “ssDNA-bridge33nt: ssDNA bridge oligonucleotide, 33 nucleotides, 5′-GTTGTTGTTGTTGTTTTGTATGGTGTGTGGTGG-3′ (chemistry not fully specified)” the “complex formation between KEAP1-ssDNA12 and KRAS^G12D-ssDNA18, BLI binding signal” value was “high BLI signal”.
